Measurements: patent US7482149B2 (priority 2003, dated 2009)
Like-named read-outs stand apart in the source and are kept apart here.

What was measured:
[1] = tested on: SARS-CoV; format: cell-based
[2] = tested on: Herpes simplex virus and varicella-zoster virus; details: cited from earlier work
[3] = tested on: Cytomegalovirus; details: cited from earlier work
[4] = tested on: Herpes simplex mutants; details: cited from earlier work
[5] = tested on: HIV; details: cited from earlier work
[6] = tested on: HIV and other retroviruses; details: cited from earlier work
[7] = tested on: SARS-CoV; details: ribavirin concentrations that inhibit other sensitive viruses; preliminary; cited from earlier work
[8] = tested on: Influenza virus; details: cited from earlier work
[9] = tested on: Vero E6 cells
[10] = tested on: Herpes and poxviruses; details: cited from earlier work
[11] = complete (100%) inhibition of CPE up to highest concentration tested, 10,000 PFU/well, MOI 0.5, Vero E6

Molecule: Nc1nc2c(ncn2COCCO)c(=O)[nH]1 [Acyclovir]
- Inhibition of Cytopathic Effect [1]: No
- IC50 [2]: 0.01 to 13.5 µg/mL

Molecule: NC12CC3CC(CC(C3)C1)C2 [Amantadine]
- Inhibition of Cytopathic Effect [1]: No

Molecule: Nc1nc(O)c2ncn(COC(CO)CO)c2n1 [Cymevene, Ganciclovir]
- Inhibition of Cytopathic Effect [1]: No
- IC50 [3]: 0.02 to 3.48 µg/mL

Molecule: O=C(O)P(=O)(O)O [Foscarnet]
- IC50 [4]: 5000 to 443000 nM
- Inhibition of Cytopathic Effect [1]: No
- IC50 ([3]; read-out: IC50): 50000 to 800000 nM

Molecule: CC(C)(C)NC(=O)[C@@H]1CN(Cc2cccnc2)CCN1C[C@@H](O)C[C@@H](Cc1ccccc1)C(=O)N[C@H]1c2ccccc2C[C@H]1O [Indinavir]
- IC50 ([5]; read-out: IC50): 25 to 100 nM
- Inhibition of Cytopathic Effect [1, 11]: No

Molecule: Cc1c(O)cccc1C(=O)N[C@@H](CSc1ccccc1)[C@H](O)CN1C[C@H]2CCCC[C@H]2C[C@H]1C(=O)NC(C)(C)C [Nelfinavir]
- EC95 [5]: 7 to 196 nM
- Inhibition of Cytopathic Effect [1]: No

Molecule: CCOC(=O)C1=C[C@@H](OC(CC)CC)[C@H](NC(C)=O)[C@@H](N)C1 [Oseltamivir]
- Inhibition of Cytopathic Effect [1]: No

Molecule: NC(=O)c1ncn([C@@H]2O[C@H](CO)[C@@H](O)[C@H]2O)n1 [Ribavirin]
- IC50 [6]: 25 to 100 µg/mL
- inhibition of replication or cell-to-cell spread of the SARS-CoV [7]: do not inhibit
- IC50 [8]: 1 to 25 µg/mL
- concentrations showing inhibitory activity ([1]; all three viral loads): 0.5 to 5 mg/mL
- Inhibition of Cytopathic Effect [1, 11]: Yes
- Complete inhibition of cytopathic effect (CIA100) ([1]; virus load 100 PFU/well): 1,000 μg/mL
- Complete inhibition of cytopathic effect (CIA100) ([1]; virus load 1,000 PFU/well): 10,000 μg/mL
- Complete inhibition of cytopathic effect (CIA100) ([1]; virus load 10,000 PFU/well): 5,000 μg/mL
- Complete inhibition of cytopathic effect (CIA100) ([1]; virus load 10,000 PFU/well, listed as Ribavarin): 10,000 μg/mL
- cytotoxicity [9]: slight cytotoxicity
- concentrations at which cytotoxic effects were observed ([9]; African green monkey): 200 to 1000 µg/mL
- MIC [10]: 3.2 to 50 µg/mL

Molecule: CC(C)(C)NC(=O)[C@@H]1C[C@@H]2CCCC[C@@H]2CN1C[C@@H](O)[C@H](Cc1ccccc1)NC(=O)[C@H](CC(N)=O)NC(=O)c1ccc2ccccc2n1 [Saquinavir]
- IC50 ([5]; read-out: IC50): 1 to 30 nM
- Inhibition of Cytopathic Effect [1]: No

Molecule: CC(=O)N[C@H]1[C@H]([C@H](O)[C@H](O)CO)OC(C(=O)O)=C[C@@H]1N=C(N)N [Zanamivir]
- IC50 ([8]; read-out: IC50): 5 to 16000 nM
- Inhibition of Cytopathic Effect [1]: No

Molecule: Cc1cn([C@H]2C[C@H](N=[N+]=[N-])[C@@H](CO)O2)c(=O)[nH]c1=O [Zidovudine]
- IC50 [5]: 0.003 to 0.013 µg/mL
- Inhibition of Cytopathic Effect [1, 11]: No

Molecule: Interferon α2b
- Inhibition of Cytopathic Effect [1]: No
